Measured values from patent US20240208986A1, “PHENYL AZEPINES AS RIPK1 INHIBITORS AND METHODS OF USE THEREOF” (Merck Sharp & Dohme LLC, priority 2021, published 2024).

Target: RIPK1 (recombinant GST-RIPK1 kinase domain, residues 1-327) (Homo sapiens (Human), UniProt Q13546)
Test: RIPK1-ADP-Glo Enzymatic Assay
Assay type: biochemical
Details: 25 nM GST-RIPK1, 300 μM ATP, 3 μM dephosphorylated-MBP; 30 minutes pre-incubation, 150 minutes reaction; ten-point titration
Experimental: The enzymatic activity of RIPK1 is measured using an assay derived from ADP-Glo kit (™Promega), which provides a luminescent-based ADP detection system. Specifically, the ADP generated by RIPK1 kinase is proportionally detected as luminescent signals in a homogenous fashion. In this context, the assessment of the inhibitory effect of small molecules (EC50) is measured by the effectiveness of the compounds to inhibit the ATP to ADP conversion by RIPK1.
In this assay, the potency (EC50) of each compound was determined from a ten-point (1:3 serial dilution; top compound concentration of 100000 nM) titration curve using the following outlined procedure. To each well of a white ProxiPlus 384 well-plate, 30 nL of compound (1% DMSO in final assay volume of 3 μL) was dispensed, followed by the addition of 2 μL of 1× assay buffer (25 mM Hepes 7.3, 20 mM MgCl2, 50 mM NaCl, 1 mM DTT, 0.005% Tween20, and 0.02% BSA) containing 37.5 nM of GST-RIPK1 (recombinant GST-RIPK1 kinase domain (residues 1-327) enzyme produced from baculovirus-transfected Sf21 cells: MW=62 kDa). Plates were placed in an ambient temperature humidified chamber for a 30 minutes pre-incubation with compound. Subsequently, each reaction was initiated by the addition of 1 μL 1× assay buffer containing 900 μM ATP and 3 μM dephosphorylated-MBP substrate. The final reaction in each well of 3 μL consists of 25 nM of GST-RIPK1, 300 μM ATP, and 3 μM dephosphorylated-MBP. Kinase reactions were allowed to proceed for 150 minutes prior to adding ADP-Glo reagents per Promega's outlined kit protocol. Dose-response curves were generated by plotting percent effect (% product conversion; Y-axis) vs. Log10 compound concentrations (X-axis). EC50 values were calculated using a non-linear regression, four-parameters sigmoidal dose-response model.

RIPK1 (recombinant GST-RIPK1 kinase domain, residues 1-327), sequence (Q13546 1-327): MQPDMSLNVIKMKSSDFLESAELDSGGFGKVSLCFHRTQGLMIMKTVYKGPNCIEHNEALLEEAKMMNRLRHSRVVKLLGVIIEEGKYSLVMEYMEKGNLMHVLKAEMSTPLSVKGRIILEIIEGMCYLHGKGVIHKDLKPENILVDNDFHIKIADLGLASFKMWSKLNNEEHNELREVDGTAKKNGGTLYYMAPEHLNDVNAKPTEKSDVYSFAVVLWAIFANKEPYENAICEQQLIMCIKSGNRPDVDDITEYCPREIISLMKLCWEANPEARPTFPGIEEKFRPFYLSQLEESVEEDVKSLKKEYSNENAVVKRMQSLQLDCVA

Row | Compound | IC50
1 | CC1(C(=O)N2C[C@@H]3C[C@H]2c2ccccc2O3)CC1(F)F (mixture of isomers) [Compound 1-14, [(R and S)-2,2-difluoro-1-methylcyclopropyl]-[(2S,5S)-2,3-dihydro-2,5-methano-1,4-benzoxazepin-4(5H)-yl]methanone] | 313 nM
2 | CC1(C(=O)N2C[C@@H]3C[C@H]2c2ccccc2O3)CC1(Cl)Cl (mixture of isomers) [Compound 1-20, [(R and S)-2,2-dichloro-1-methylcyclopropyl]-[(2S,5S)-2,3-dihydro-2,5-methano-1,4-benzoxazepin-4(5H)-yl]methanone] | 62 nM
3 | CC1(C)CCC1C(=O)N1C[C@@H]2C[C@H]1c1ccccc1O2 (mixture of isomers) [Compound 1-27, [(2S,5S)-2,3-dihydro-2,5-methano-1,4-benzoxazepin-4(5H)-yl]-[(R and S)-2,2-dimethylcyclobutyl] methanone] | 921 nM
4 | C[C@H]1CC[C@@](C)(C(=O)N2C[C@@H]3C[C@H]2c2ccccc2O3)C1(C)C (racemic) [Compound 1-32, [(2S,5S)-2,3-dihydro-2,5-methano-1,4-benzoxazepin-4(5H)-yl][(1R,3S and 1S,3R)-1,2,2,3-tetramethylcyclopentyl] methanone] | 391 nM
5 | O=C(C1CCCCC12CC2)N1C[C@@H]2C[C@H]1c1ccccc1O2 (mixture of isomers) [Compound 1-35, [(2S,5S)-2,3-dihydro-2,5-methano-1,4-benzoxazepin-4(5H)-yl]-[(R and S)-spiro[2.5]octan-4-yl]methanone] | 220 nM
6 | CC1(C(=O)N2C[C@@H]3C[C@H]2c2ccccc2O3)CCOC1 (mixture of isomers) [Compound 1-50, [(2S,5S)-2,3-dihydro-2,5-methano-1,4-benzoxazepin-4(5H)-yl]-[(R and S)-3-methyloxolan-3-yl]methanone] | 393 nM
7 | CC(C)(C)C(=O)N1C2CCC1c1ccccc1OC2 (single isomer, unassigned) [Compound 3-1, 2,2-dimethyl-1-((3S,6R or 3R,6S)-3,4,5,6-tetrahydro-2H-3,6-epiminobenzo[b]oxocin-11-yl)propan-1-one] | 281 nM
8 | O=C(N1C[C@H]2Cc3ccccc3[C@@H]1C2)C12CCC(C(F)(F)F)(CC1)C2 (single isomer, unassigned) [Compound 3-4] | 267 nM
9 | C[C@@]12C[C@@H](c3ccccc3O1)N(C(=O)C13CCC(CC1)C3)C2 (single isomer, unassigned) [Compound 3-7] | 6580 nM
10 | C[C@@]12C[C@@H](c3ccccc3O1)N(C(=O)C13CCC(F)(CC1)C3)C2 (single isomer, unassigned) [Compound 3-8] | 3980 nM
11 | C[C@@]12C[C@@H](c3ccccc3O1)N(C(=O)C13CCC(C(F)(F)F)(CC1)C3)C2 (single isomer, unassigned) [Compound 3-9] | 2410 nM
12 | O=C(NCc1ccc(Cl)cc1)C(=O)N1CC2C[C@H]1c1ccccc1O2 (stereo in doubt) [Compound 1-56, N-[(4-chlorophenyl)methyl]-2-[(2R,5S)-2,3-dihydro-2,5-methano-1,4-benzoxazepin-4(5H)-yl]-2-oxoacetamide] | 863 nM
13 | CC(C)(C)C(=O)N1C[C@@H]2C[C@H]1c1ccccc1O2 [Compound 1-1, 1-((2S,5S)-2,3-dihydro-2,5-methanobenzo[f][1,4]oxaze-pin-4(5H)-yl)-2,2-dimethylpropan-1-one] | 48 nM
14 | CC(C)(C(=O)N1C[C@@H]2C[C@H]1c1ccccc1O2)C(F)F [Compound 1-2, 1-((2S,5S)-2,3-dihydro-2,5-methanobenzo[f][1,4]oxaze-pin-4(5H)-yl)-3,3-difluoro-2,2-dimethylpropan-1-one] | 61 nM
15 | CC1(C(=O)N2C[C@@H]3C[C@H]2c2ccccc2O3)CCC1 [Compound 1-3, ((2S,5S)-2,3-dihydro-2,5-methanobenzo[f][1,4]oxaze-pin-4(5H)-yl)(1-methylcyclobutyl)methanone] | 97 nM
16 | O=C(N1C[C@@H]2C[C@H]1c1ccccc1O2)C12CCC(CC1)C2 [Compound 1-4, bicyclo[2.2.1]heptan-1-yl((2S,5S)-2,3-dihydro-2,5-methanobenzo[f][1,4]oxaze-pin-4(5H)-yl)methanone] | 33 nM
17 | CC1(C(=O)N2C[C@@H]3C[C@H]2c2ccccc2O3)CCCCC1 [Compound 1-5, ((2S,5S)-2,3-dihydro-2,5-methanobenzo[f][1,4]oxaze-pin-4(5H)-yl)(1-methylcyclohexyl)methanone] | 42 nM

Row | Compound | IC50
18 | CC1(C(=O)N2C[C@@H]3C[C@H]2c2ccccc2O3)CCCC1 [Compound 1-6, ((2S,5S)-2,3-dihydro-2,5-methanobenzo[f][1,4]oxaze-pin-4(5H)-yl)(1-methylcyclopentyl) methanone] | 43 nM
19 | CC(C)(COC(F)(F)F)C(=O)N1C[C@@H]2C[C@H]1c1ccccc1O2 [Compound 1-7, 1-((2S,5S)-2,3-dihydro-2,5-methanobenzo[f][1,4]oxaze-pin-4(5H)-yl)-2,2-dimethyl-3-(trifluoromethoxy)propan-1-one] | 217 nM
20 | O=C(C1CCCCC1)N1C[C@@H]2C[C@H]1c1ccccc1O2 [Compound 1-8, cyclohexyl((2S,5S)-2,3-dihydro-2,5-methanobenzo[f][1,4]oxaze-pin-4(5H)-yl)methanone] | 641 nM
21 | O=C(N1C[C@@H]2C[C@H]1c1ccccc1O2)C1(F)CCCCC1 [Compound 1-9, ((2S,5S)-2,3-dihydro-2,5-methanobenzo[f][1,4]oxaze-pin-4(5H)-yl)(1-fluorocyclohexyl)methanone] | 381 nM
22 | O=C(N1C[C@@H]2C[C@H]1c1ccccc1O2)C12CCCC(C1)C2 [Compound 1-10, bicyclo[3.1.1]heptan-1-yl((2S,5S)-2,3-dihydro-2,5-methanobenzo[f][1,4]oxaze-pin-4(5H)-yl)methanone] | 138 nM
23 | CC(C)(C(=O)N1C[C@@H]2C[C@H]1c1ccccc1O2)C1CCC1 [Compound 1-11, 2-cyclobutyl-1-[(2S,5S)-2,3-dihydro-2,5-methano-1,4-benzoxazepin-4(5H)-yl]-2-methylpropan-1-one] | 244 nM
24 | CC(F)(F)C1(C(=O)N2C[C@@H]3C[C@H]2c2ccccc2O3)CCC1 [Compound 1-12, [1-(1,1-difluoroethyl)cyclobutyl] [(2S,5S)-2,3-dihydro-2,5-methano-1,4-benzoxazepin-4(5H)-yl]methanone] | 86 nM
25 | O=C(N1C[C@@H]2C[C@H]1c1ccccc1O2)C1(C(F)F)CCCC1 [Compound 1-13, [1-(difluoromethyl)cyclopentyl] [(2S,5S)-2,3-dihydro-2,5-methano-1,4-benzoxazepin-4(5H)-yl]methanone] | 104 nM
26 | CC1(C)C(C(=O)N2C[C@@H]3C[C@H]2c2ccccc2O3)C1(C)C [Compound 1-15, [(2S,5S)-2,3-dihydro-2,5-methano-1,4-benzoxazepin-4(5H)-yl](2,2,3,3-tetramethylcyclopropyl) methanone] | 981 nM
27 | O=C(N1C[C@@H]2C[C@H]1c1ccccc1O2)C1(C(F)(F)F)CCC1 [Compound 1-16, [(2S,5S)-2,3-dihydro-2,5-methano-1,4-benzoxazepin-4(5H)-yl][1-(trifluoromethyl)cyclobutyl] methanone] | 96 nM
28 | CC(F)(F)C(C)(C)C(=O)N1C[C@@H]2C[C@H]1c1ccccc1O2 [Compound 1-17, 1-[(2S,5S)-2,3-dihydro-2,5-methano-1,4-benzoxazepin-4(5H)-yl]-3,3-difluoro-2,2-dimethylbutan-1-one] | 47 nM
29 | CC(C)(C(=O)N1C[C@@H]2C[C@H]1c1ccccc1O2)C(F)(F)F [Compound 1-18, 1-[(2S,5S)-2,3-dihydro-2,5-methano-1,4-benzoxazepin-4(5H)-yl]-3,3,3-trifluoro-2,2-dimethylpropan-1-one] | 73 nM
30 | O=C(N1C[C@@H]2C[C@H]1c1ccccc1O2)C1(F)CCCC1 [Compound 1-19, [(2S,5S)-2,3-dihydro-2,5-methano-1,4-benzoxazepin-4(5H)-yl](1-fluorocyclopentyl)methanone] | 499 nM
31 | CC(C)(C)CC(=O)N1C[C@@H]2C[C@H]1c1ccccc1O2 [Compound 1-21, 1-[(2S,5S)-2,3-dihydro-2,5-methano-1,4-benzoxazepin-4(5H)-yl]-3,3-dimethylbutan-1-one] | 888 nM
32 | CCC(C)(C)C(=O)N1C[C@@H]2C[C@H]1c1ccccc1O2 [Compound 1-22, 1-[(2S,5S)-2,3-dihydro-2,5-methano-1,4-benzoxazepin-4(5H)-yl]-2,2-dimethylbutan-1-one] | 21 nM
33 | O=C(N1C[C@@H]2C[C@H]1c1ccccc1O2)C12CC3CC(CC(C3)C1)C2 [Compound 1-23, [(2S,5S)-2,3-dihydro-2,5-methano-1,4-benzoxazepin-4(5H)-yl][(3R,5R,7R)-tricyclo[3.3.1.1~3,7~]decan-1-yl]methanone] | 234 nM
